Assay results as given in ChEMBL document CHEMBL2202954, “The effect of PLC-γ2 inhibitors on the growth of human tumour cells” (2012).

Tests used:
Assay type in all cases: functional
MDA-MB-468 = assay: Cytotoxicity against human MDA-MB-468 cells by SRB assay
SF-295 = assay: Cytotoxicity against human SF295 cells by SRB assay
CCRF-CEM = assay: Cytotoxicity against human CCRF-CEM cells by SRB assay
MOLT-4 = assay: Cytotoxicity against human MOLT4 cells by SRB assay
SR = assay: Cytotoxicity against human SR cells by SRB assay
MDA-MB-435 = assay: Cytotoxicity against human MDA-MB-435 cells by SRB assay; conditions: for CC50: read-out: LC50 (the source's name)
NCI-H522 = assay: Cytotoxicity against human NCI-H522 cells by SRB assay
HL-60(TB) = assay: Cytotoxicity against human HL-60(TB) cells by SRB assay
RPMI-8226 = assay: Cytotoxicity against human RPMI8226 cells by SRB assay

## Cc1ccc(Cl)cc1NC(=O)c1sc2nc3c(cc2c1N)C(=O)CCC3
MDA-MB-468
  GI50: 2740 nM
  TGI: 8760 nM
SF-295
  GI50: 2330 nM
  TGI: 7440 nM
CCRF-CEM
  GI50: 3500 nM
  TGI: > 100000 nM
MOLT-4
  GI50: 3500 nM
  TGI: > 100000 nM
SR
  GI50: 3500 nM
  TGI: > 100000 nM
MDA-MB-435
  GI50: 1100 nM
  TGI: 5040 nM
NCI-H522
  GI50: 2170 nM
  TGI: 4950 nM
HL-60(TB)
  GI50: 3500 nM
  TGI: > 100000 nM
RPMI-8226
  GI50: 3500 nM
  TGI: > 100000 nM

## Cc1cc(C)c(NC(=O)c2sc3nc4c(cc3c2N)C(=O)CCC4)c(C)c1
MDA-MB-468
  GI50: 596 nM
  TGI: 3650 nM
SF-295
  GI50: 399 nM
CCRF-CEM
  GI50: 3600 nM
  TGI: > 100000 nM
MOLT-4
  GI50: 3600 nM
  TGI: > 100000 nM
SR
  GI50: 3600 nM
  TGI: > 100000 nM
MDA-MB-435
  GI50: 267 nM
  TGI: 1160 nM
NCI-H522
  GI50: 360 nM
  TGI: 2010 nM
HL-60(TB)
  GI50: 3600 nM
  TGI: > 100000 nM
RPMI-8226
  GI50: 3600 nM
  TGI: > 100000 nM

## Cc1ccccc1NC(=O)c1sc2nc3c(cc2c1N)C(=O)CCC3
MDA-MB-468
  GI50: 529 nM
  TGI: 6210 nM
SF-295
  GI50: 1330 nM
CCRF-CEM
  GI50: 4300 nM
  TGI: > 100000 nM
MOLT-4
  GI50: 4300 nM
  TGI: > 100000 nM
SR
  GI50: 4300 nM
  TGI: > 100000 nM
MDA-MB-435
  GI50: 331 nM
  TGI: 1980 nM
NCI-H522
  GI50: 895 nM
  TGI: 3500 nM
HL-60(TB)
  GI50: 4300 nM
  TGI: > 100000 nM
RPMI-8226
  GI50: 4300 nM
  TGI: > 100000 nM

## Nc1c(C(=O)Nc2ccccc2)sc2nc3c(cc12)C(=O)CCC3
MDA-MB-468
  GI50: 150 nM
  TGI: 583 nM
SF-295
  GI50: 372 nM
CCRF-CEM
  GI50: 520 nM
  TGI: > 100000 nM
MOLT-4
  GI50: 520 nM
  TGI: > 100000 nM
SR
  GI50: 520 nM
  TGI: > 100000 nM
MDA-MB-435
  GI50: 89 nM
  TGI: 297 nM
NCI-H522
  GI50: 150 nM
  LC50: 68000 nM
  TGI: 402 nM
HL-60(TB)
  GI50: 520 nM
  TGI: > 100000 nM
RPMI-8226
  GI50: 520 nM
  TGI: > 100000 nM

## Nc1c(C(=O)Nc2ccccc2F)sc2nc3c(cc12)C(=O)CCC3
MDA-MB-468
  GI50: 238 nM
  TGI: 952 nM
SF-295
  GI50: 570 nM
  TGI: 85700 nM
CCRF-CEM
  GI50: 1800 nM
  TGI: > 100000 nM
MOLT-4
  GI50: 1800 nM
  TGI: > 100000 nM
SR
  GI50: 1800 nM
  TGI: > 100000 nM
MDA-MB-435
  GI50: 196 nM
  TGI: 567 nM
  CC50: 8000 nM
NCI-H522
  GI50: 440 nM
  TGI: 3310 nM
HL-60(TB)
  GI50: 1800 nM
  TGI: > 100000 nM
RPMI-8226
  GI50: 1800 nM
  TGI: > 100000 nM

## Nc1c(C(=O)Nc2cccc(Cl)c2)sc2nc3c(cc12)C(=O)CCC3
MDA-MB-468
  GI50: 45 nM
  TGI: 622 nM
SF-295
  GI50: 213 nM
  TGI: 781 nM
CCRF-CEM
  GI50: 200 nM
  TGI: > 100000 nM
MOLT-4
  GI50: 200 nM
  TGI: > 100000 nM
SR
  GI50: 200 nM
  TGI: > 100000 nM
MDA-MB-435
  GI50: 45 nM
  TGI: 270 nM
  CC50: 900 nM
NCI-H522
  GI50: 190 nM
  TGI: 788 nM
HL-60(TB)
  GI50: 200 nM
  TGI: > 100000 nM
RPMI-8226
  GI50: 200 nM
  TGI: > 100000 nM
